Test results as given in BindingDB's records for doi:10.1016/S0960-894X(01)80892-1 (1993).
pKi: −log10 of the molar value.

Experiment: Binding affinity against sigma receptor in guinea pig brain preparation was estimated using [3H]3-PPP as radioligand

| Structure (SMILES) | pKi |
| --- | --- |
| C1=C(c2ccccn2)CCN(CCCCc2ccncc2)C1 [1'-(4-Pyridin-4-yl-butyl)-1',2',3',6'-tetrahydro-[2,4']bipyridinyl] | 7.35 |
| C1=C(c2c[nH]c3ccccc23)CCN(CCCCc2ccncc2)C1 [3-[1-(4-Pyridin-4-yl-butyl)-1,2,3,6-tetrahydro-pyridin-4-yl]-1H-indole] | 7.99 |
| C1=C(c2ccc3ccccc3c2)CCN(CCCCc2ccncc2)C1 [4-[4-(4-Naphthalen-2-yl-3,6-dihydro-2H-pyridin-1-yl)-butyl]-pyridine] | 8.51 |
| C1=C(c2ccccc2)CCN(CCCCc2ccncc2)C1 [4-[4-(4-Phenyl-3,6-dihydro-2H-pyridin-1-yl)-butyl]-pyridine] | 8.57 |
| C1=C(c2cccs2)CCN(CCCCc2ccncc2)C1 [4-[4-(4-Thiophen-2-yl-3,6-dihydro-2H-pyridin-1-yl)-butyl]-pyridine] | 8.67 |
| Cc1ccc(C2=CCN(CCCCc3ccncc3)CC2)cc1 [4-[4-(4-p-Tolyl-3,6-dihydro-2H-pyridin-1-yl)-butyl]-pyridine] | 8.23 |
| Clc1ccc(C2=CCN(CCCCc3ccncc3)CC2)cc1 [4-{4-[4-(4-Chloro-phenyl)-3,6-dihydro-2H-pyridin-1-yl]-butyl}-pyridine] | 8.98 |
| Fc1ccc(C2=CCN(CCCCc3ccncc3)CC2)cc1 [4-{4-[4-(4-Fluoro-phenyl)-3,6-dihydro-2H-pyridin-1-yl]-butyl}-pyridine] | 8.76 |
| COc1ccc(C2=CCN(CCCCc3ccncc3)CC2)cc1 [4-{4-[4-(4-Methoxy-phenyl)-3,6-dihydro-2H-pyridin-1-yl]-butyl}-pyridine] | 9.35 |
